Target: Proprotein convertase subtilisin/kexin type 9 (Homo sapiens) (UniProt Q8NBP7)
Test: Inhibition of human PCSK9 by Alexa Fluor 647 staining based TR-FRET assay relative to control

Sequence of Proprotein convertase subtilisin/kexin type 9 (Homo sapiens) (Q8NBP7 31-152 limits assumed): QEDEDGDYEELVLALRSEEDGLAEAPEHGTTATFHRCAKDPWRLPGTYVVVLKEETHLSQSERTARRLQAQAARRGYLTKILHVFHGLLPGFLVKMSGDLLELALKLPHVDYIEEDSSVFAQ
Sequence of Proprotein convertase subtilisin/kexin type 9 (Homo sapiens) (Q8NBP7 153-692 limits assumed): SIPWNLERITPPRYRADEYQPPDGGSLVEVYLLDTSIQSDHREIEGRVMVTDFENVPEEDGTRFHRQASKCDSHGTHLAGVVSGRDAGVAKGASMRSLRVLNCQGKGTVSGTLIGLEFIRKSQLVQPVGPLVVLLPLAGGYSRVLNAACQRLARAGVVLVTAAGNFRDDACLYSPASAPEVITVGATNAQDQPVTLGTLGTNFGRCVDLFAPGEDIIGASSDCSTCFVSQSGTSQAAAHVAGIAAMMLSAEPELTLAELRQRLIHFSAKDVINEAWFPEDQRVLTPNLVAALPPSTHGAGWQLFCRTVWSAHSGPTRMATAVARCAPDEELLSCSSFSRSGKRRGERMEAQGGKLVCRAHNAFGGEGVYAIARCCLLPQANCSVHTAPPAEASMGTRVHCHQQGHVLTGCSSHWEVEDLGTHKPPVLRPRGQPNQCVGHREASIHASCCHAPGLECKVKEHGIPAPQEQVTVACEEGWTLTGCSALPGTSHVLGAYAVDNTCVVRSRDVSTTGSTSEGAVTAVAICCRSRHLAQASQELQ

Imax | SMILES
101% | C[C@H]1C(=O)N[C@@H](CO)C(=O)N[C@@]2(Cc3ccc(Cl)cc3)CCCN(C2)C(=O)[C@H](Cc2ccccc2)CC(=O)N1Cc1ccc(Cl)c(F)c1Oc1ccc(-c2cnc(CN(C)C)n2C)cc1
100% | C[C@H]1C(=O)N[C@@H](CO)C(=O)N[C@@]2(Cc3ccc(Cl)cc3)CCCN(C2)C(=O)[C@H](CC2CC2)CC(=O)N1Cc1c(F)cc(Cl)cc1Oc1ccc(-c2cnc(CNC3CCC3)n2C)cc1

The remaining lines, values behind:

SMILES | Imax
COC[C@@H]1NC(=O)[C@H](C)N(Cc2ncc(Cl)cc2Oc2ccc(-c3cnc(CN(C)C)n3C)cc2)C(=O)C[C@@H](Cc2ccccc2)C(=O)N2CCC[C@@](Cc3ccc(Cl)cc3)(C2)NC1=O | 103%
CNCc1ncc(-c2ccc(Oc3cc(Cl)cc(F)c3CN3C(=O)C[C@@H](CC(F)(F)F)C(=O)N4CCC[C@@](Cc5ccc(Cl)cc5)(C4)N(C)C(=O)[C@H](COC)NC(=O)[C@@H]3C)cc2)n1C | 105%
COC[C@@H]1NC(=O)[C@H](C)N(Cc2ccc(Cl)cc2Oc2ccc(-c3cnc(CN(C)C)n3C)nc2)C(=O)C[C@@H](CC(F)(F)F)C(=O)N2CCC[C@@](Cc3ccc(Cl)cc3)(C2)N(C)C1=O | 113%
CNCc1ncc(-c2ccc(Oc3cc(Cl)ccc3CN3C(=O)C[C@@H](Cc4ccccc4)C(=O)N4CCC[C@@](Cc5ccc(Cl)cc5)(C4)NC(=O)[C@H](CO)NC(=O)[C@@H]3C)cc2)n1C | 105%

— ChEMBL document CHEMBL4619822, “Novel Cyclic Tetramer Compounds as PCSK9 Inhibitors for Treating Metabolic Disorders” (ACS Med Chem Lett, 2020)
